Experimental findings from publication PMC6158578, “Optimization and Lead Selection of Benzothiazole Amide Analogs Toward a Novel Antimycobacterial Agent” (Frontiers in Microbiology, 2018) are described below.

≈ marks a conversion by molar mass, not a printed value.

The MIC is the lowest concentration found to suppress growth. For orientation: solubility means the concentration that dissolves in the medium under given conditions. Low readings indicate a poorly soluble substance, high ones a readily soluble substance. The term MIC90 denotes an inhibitory concentration at the 90% level, which refers to growth in some studies and to a panel of isolates in others. For orientation: microsomal CLint means the capacity of the preparation to metabolise the compound, expressed as a volume cleared per time. The low end stands for greater metabolic stability, the high end for faster metabolism. The term inhibition denotes the share of the control response that was lost under treatment.

The test system of one data set is P. aeruginosa ATCC 35151. Kind of data set: MIC, spectrum of activity. Particulars: Pseudomonas aeruginosa, ATCC35151; P. aeruginosa ATCC 35151; read-out: MIC. It counts as cell-based.
The test system of data set [1] is mycolic acid transfer in Mabs ATCC19977. Nature of the data set: Metabolic labeling with [14C]acetate. The data set is classed as cell-based, M. abscessus. Particulars: 2x and 10x MIC.
In the next data set the test system is M. chimaera 1502055. Kind of data set: MIC, Middlebrook medium (7H9 + OADC, 7 days). It counts as cell-based. As to conditions: 168 h; M. chimaera 1502055; read-out: MIC.
In the next data set the test system is M. avium 101. Nature of the data set: MIC, Middlebrook medium (7H9 + OADC, 7 days). It counts as cell-based. As to conditions: Mycobacterium avium, 168 h; M. avium 101; read-out: MIC.
Another data set is described as follows: Solubility in corn oil. Particulars: oil or lipid.
Data set [2] deals with M. fortuitum (n = 11) clinical isolates. Kind of data set: MIC against rapid-growing NTM clinical isolates. It counts as cell-based. As to conditions: M. fortuitum (n = 11).
Data set [3] relates to M. peregrinum ATCC 700686. Kind of data set: MIC, broth microdilution with resazurin (MHB, 3 days). Particulars: Mycolicibacterium peregrinum, ATCC700686; M. peregrinum ATCC 700686; read-out: MIC. The data set is classed as cell-based. In general terms: Dilution methods test growth across graded concentrations, often in twofold steps.
Data set [4] relates to M. chelonae (n = 11) clinical isolates. Nature of the data set: MIC against rapid-growing NTM clinical isolates. It counts as cell-based. As to conditions: M. chelonae (n = 11).
The next data set relates to M. abscessus 1. Kind of data set: MIC in MHB versus 7H9+OADC. The data set is classed as cell-based.
A further data set concerns M. intracellulare 1956. Nature of the data set: MIC, Middlebrook medium (7H9 + OADC, 7 days). As to conditions: Mycobacterium intracellulare, 168 h; M. intracellulare 1956; read-out: MIC. The data set is classed as cell-based.
The nature of the next data set: in vitro. As to conditions: human, microsomes. The data set is classed as in vitro ADME. Here is the method:
ADMET assays were performed through NIAID Preclinical Services and Eurofins. Potential for cytotoxicity was monitored in HepG2 cells after 72 h growth in the presence of test compounds, either prepared as 10-point 3-fold serial dilutions or at a fixed 10 μM concentration. Cell viability was measured using the CellTiter-Glo® Luminescent Cell Viability Assay (Promega) or via fluorescent image analysis. Cytotoxicity was expressed as IC50 or as percent reduction of viable cells relative to a reference compound. Metabolic stability of compounds was evaluated via incubation with human liver microsomes at 37°C and quantitative analysis of parent compound by LC-MS/MS in samples removed at 0, 5, 15, 30, and 45 min (Obach, [1999]). For cytochrome P450 (CYP) inhibition assays, compounds were prepared as a 7-point dilution series and incubated with human liver microsomes in buffer containing 2 mM NADPH and probe substrate. […] Thermodynamic solubility of compounds in aqueous media was determined by incubation in 50 mM potassium phosphate buffer (pH 7.4) for 24 h, followed by HPLC-UV detection of compound in the filtrate (Analiza, Cleveland, OH, United States).

Another data set concerns the target T1, CYP2B6 (Homo sapiens, UniProt P20813).
T1 construct: incubated with human liver microsomes in buffer containing 2 mM NADPH and probe substrate; from tissue; host or cells: human liver microsomes
T1 sequence (P20813 1-491): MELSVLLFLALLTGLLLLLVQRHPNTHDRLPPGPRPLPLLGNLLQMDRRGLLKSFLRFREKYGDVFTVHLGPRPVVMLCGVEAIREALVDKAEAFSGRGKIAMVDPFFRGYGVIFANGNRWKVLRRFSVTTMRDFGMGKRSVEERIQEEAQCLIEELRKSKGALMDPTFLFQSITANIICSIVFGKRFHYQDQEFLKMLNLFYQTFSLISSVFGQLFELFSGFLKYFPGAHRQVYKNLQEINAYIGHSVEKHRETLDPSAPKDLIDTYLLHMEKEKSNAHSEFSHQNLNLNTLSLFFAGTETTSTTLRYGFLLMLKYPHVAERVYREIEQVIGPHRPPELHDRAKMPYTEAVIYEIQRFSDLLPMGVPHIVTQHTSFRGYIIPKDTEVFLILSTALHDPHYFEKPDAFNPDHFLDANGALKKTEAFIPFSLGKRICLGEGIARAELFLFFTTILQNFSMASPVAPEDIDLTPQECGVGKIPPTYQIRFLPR
Kind of data set: CYP inhibition in human liver microsomes. The data set is classed as in vitro ADME.

As for `CC12CC3CC(C)(C1)CC(C(=O)Nc1nc4ccc(OC(F)(F)F)cc4s1)(C3)C2` [CRS400226], the MIC with P. aeruginosa ATCC 35151 was greater than 64 µg/mL; with M. chimaera 1502055, 1 µg/mL; in the data set on M. avium 101, 2 µg/mL; in data set [3], no more than 0.06 µg/mL; in the data set on M. abscessus 1 (M. abscessus 1, 7H9 + OADC (5 mg/mL albumin)), 8 µg/mL; in the data set on M. abscessus 1 (M. abscessus 1, MHB), 0.25 µg/mL (≈ 0.589 µM). Besides, the MIC with M. intracellulare 1956 worked out at 1 µg/mL. The “effect on mycolic acid transfer to arabinogalactan and trehalose dimycolates” value in [1] is listed as “concentration-dependent inhibition of mycolic acid transfer”. Moreover, the solubility in “Solubility in corn oil” is no more than 250 mg/mL. The results for the MIC range in data set [2] and in [4] were 0.12 to 0.5 µg/mL and 0.5–0.5 μg/mL, respectively. Besides, the MIC90 amounted to 0.5 µg/mL (≈ 1.18 µM) in data set [2] (Mycolicibacterium fortuitum, read-out: MIC90) and 0.5 µg/mL (≈ 1.18 µM) in data set [4] (Mycobacteroides chelonae, read-out: MIC90). Further, the microsomal CLint in the data set “in vitro” was 124 µL/min/mg. This compound returned an inhibition at 10 µM at CYP2B6 of less than 50%.
